Data taken from patent publication US20240158446A1, “CYCLIC COMPOUND HAVING SELECTIVE INHIBITORY ACTION ON KRAS OVER HRAS AND NRAS” (CHUGAI SEIYAKU KABUSHIKI KAISHA, priority 2021, published 2024).
Where a SMILES comes first, the peptide text is derived from it. Bridges are numbered along the chain shown (N, C = ends). [ ]: non-standard residue; d: D form. The star is where a group is joined. hPhe(3-Cl-4-CF3) = N[C@@H](CCc1ccc(C(F)(F)F)c(Cl)c1)C(=O)O; NPrPhe(4-CF3) = CCCN[C@@H](Cc1ccc(C(F)(F)F)cc1)C(=O)O; Abu(4,4,4-F3) = N[C@@H](CC(F)(F)F)C(=O)O; Morpholine(3S-CO) = O=C(O)[C@@H]1COCCN1; Pip(4,4-F2) = O=C(O)[C@@H]1CC(F)(F)CCN1; NMeGly(cPent) = CN[C@H](C(=O)O)C1CCCC1; Gly(cPent) = N[C@H](C(=O)O)C1CCCC1; Gly(cBu) = N[C@H](C(=O)O)C1CCC1; NMeD = CN[C@@H](CC(=O)O)C(=O)O; NMeL = CN[C@@H](CC(C)C)C(=O)O; Morpholide = C1CN(*)CCO1; NMeA = CN[C@@H](C)C(=O)O; Ac5c = NC1(C(=O)O)CCCC1; Aze = O=C(O)[C@@H]1CCN1; NcPrGly = O=C(O)CNC1CC1; Abu = CC[C@H](N)C(=O)O; NPrGly = CCCNCC(=O)O; Sar = CNCC(=O)O

Legend:
[1] = molecular target: GDP-bound HRAS wild-type protein (Homo sapiens, UniProt P01112); experiment: Binding to HRAS by surface plasmon resonance (SPR), Single Cycle Kinetics; details: SPR, GDP-bound HRAS wild-type protein vs GDP-bound KRAS wild-type protein
[2] = molecular target: GDP-bound KRAS wild-type protein (Homo sapiens, UniProt P01116); experiment: Binding to KRAS by surface plasmon resonance (SPR), Single Cycle Kinetics; details: SPR Single Cycle Kinetics, GDP-bound KRAS wild-type protein, 1:1 binding model; read-out: KRAS KD
[3] = molecular target: GDP-bound NRAS wild-type protein (Homo sapiens, UniProt P01111); experiment: Binding to NRAS by surface plasmon resonance (SPR), Single Cycle Kinetics; details: SPR, GDP-bound NRAS wild-type protein vs GDP-bound KRAS wild-type protein
Chain of GDP-bound NRAS wild-type protein (P01111 whole entry): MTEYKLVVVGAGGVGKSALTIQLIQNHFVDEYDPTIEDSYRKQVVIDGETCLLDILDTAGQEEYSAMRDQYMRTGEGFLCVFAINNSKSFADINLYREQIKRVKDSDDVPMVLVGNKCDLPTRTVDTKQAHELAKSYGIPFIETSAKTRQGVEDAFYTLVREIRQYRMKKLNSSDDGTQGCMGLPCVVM

Chain of GDP-bound HRAS wild-type protein (P01112 whole entry): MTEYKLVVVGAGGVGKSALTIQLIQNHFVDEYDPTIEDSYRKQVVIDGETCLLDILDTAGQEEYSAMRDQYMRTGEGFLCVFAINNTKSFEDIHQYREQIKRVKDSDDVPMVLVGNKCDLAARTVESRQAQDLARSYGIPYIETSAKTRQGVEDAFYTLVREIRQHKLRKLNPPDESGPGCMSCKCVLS
Chain of GDP-bound KRAS wild-type protein (P01116 whole entry): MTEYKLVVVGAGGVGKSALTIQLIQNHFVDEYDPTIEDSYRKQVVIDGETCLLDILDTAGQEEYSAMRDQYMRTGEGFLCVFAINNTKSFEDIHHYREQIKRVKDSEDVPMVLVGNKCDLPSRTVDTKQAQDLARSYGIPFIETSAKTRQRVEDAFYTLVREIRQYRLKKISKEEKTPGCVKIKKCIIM

Structure (SMILES)	HRAS/KRAS (ratio of KD value for HRAS to KD value for KRAS) [1]	Kd [2]	NRAS/KRAS (ratio of KD value for NRAS to KD value for KRAS) [3]
CCCN1C(=O)CN(C)C(=O)CN(C)C(=O)[C@H]([C@@H](C)CC)NC(=O)[C@H](CC(C)C)N(C)C(=O)C[C@@H](C(=O)N2CCOCC2)N(C)C(=O)[C@H](C2CCCC2)N(C)C(=O)C2(CCCC2)NC(=O)[C@@H]2CC(F)(F)CCN2C(=O)[C@H](CCc2ccc(C(F)(F)F)c(Cl)c2)NC(=O)CN(C)C(=O)[C@@H]1Cc1ccc(C(F)(F)F)cc1 [PP0264] ([NMeL]I[Sar][Sar][NPrPhe(4-CF3)][Sar][hPhe(3-Cl-4-CF3)][Pip(4,4-F2)][Ac5c][NMeGly(cPent)][NMeD]-Morpholide; lactam N-11)	C (A compound having a KD ratio of 0.1 or more and less than 3 is denoted as C)	0.42 nM	B (a compound having 3 or more and less than 10 is denoted as B)
CCCN1C(=O)CN(C)C(=O)CN(C)C(=O)[C@H]([C@@H](C)CC)NC(=O)[C@H](CC(C)C)N(C)C(=O)C[C@@H](C(=O)N2CCOCC2)N(C)C(=O)[C@H](C2CCCC2)N(C)C(=O)C2(CCCC2)NC(=O)[C@@H]2COCCN2C(=O)[C@H](CCc2ccc(C(F)(F)F)c(Cl)c2)NC(=O)CN(C)C(=O)[C@@H]1Cc1ccc(C(F)(F)F)cc1 [PP0265] ([NMeL]I[Sar][Sar][NPrPhe(4-CF3)][Sar][hPhe(3-Cl-4-CF3)][Morpholine(3S-CO)][Ac5c][NMeGly(cPent)][NMeD]-Morpholide; lactam N-11)	C (A compound having a KD ratio of 0.1 or more and less than 3 is denoted as C)	0.28 nM	B (a compound having 3 or more and less than 10 is denoted as B)
CCCN1CC(=O)NC2(CCCC2)C(=O)N(C)[C@@H](C2CCCC2)C(=O)N(C)[C@H](C(=O)N2CCOCC2)CC(=O)N(C)[C@@H](CC(C)C)C(=O)N[C@@H]([C@@H](C)CC)C(=O)N(C)CC(=O)N(C)CC(=O)N(CCC)[C@@H](Cc2ccc(C(F)(F)F)cc2)C(=O)N(C)CC(=O)N[C@@H](CCc2ccc(C(F)(F)F)c(Cl)c2)C1=O [PP0267] ([NMeL]I[Sar][Sar][NPrPhe(4-CF3)][Sar][hPhe(3-Cl-4-CF3)][NPrGly][Ac5c][NMeGly(cPent)][NMeD]-Morpholide; lactam N-11)	B (a compound having 3 or more and less than 10 is denoted as B)	0.87 nM	B (a compound having 3 or more and less than 10 is denoted as B)
CCCN1C(=O)[C@@H]2CCN2C(=O)[C@H](C)N(C)C(=O)[C@H](CC)NC(=O)[C@H](CC(C)C)N(C)C(=O)C[C@@H](C(=O)N2CCOCC2)N(C)C(=O)[C@H](C2CCCC2)N(C)C(=O)C2(CCCC2)NC(=O)[C@@H]2CCCN2C(=O)[C@H](CCc2ccc(C(F)(F)F)c(Cl)c2)NC(=O)CN(C)C(=O)[C@@H]1Cc1ccc(C(F)(F)F)cc1 [PP0269] ([NMeL][Abu][NMeA][Aze][NPrPhe(4-CF3)][Sar][hPhe(3-Cl-4-CF3)]P[Ac5c][NMeGly(cPent)][NMeD]-Morpholide; lactam N-11)	B (a compound having 3 or more and less than 10 is denoted as B)	1.4 nM	C (A compound having a KD ratio of 0.1 or more and less than 3 is denoted as C)
CCCN1C(=O)[C@@H]2CCN2C(=O)[C@H](C)N(C)C(=O)[C@H](CC(F)(F)F)NC(=O)[C@H](CC(C)C)N(C)C(=O)C[C@@H](C(=O)N2CCOCC2)N(C)C(=O)[C@H](C2CCCC2)N(C)C(=O)C2(CCCC2)NC(=O)[C@@H]2CCCN2C(=O)[C@H](CCc2ccc(C(F)(F)F)c(Cl)c2)NC(=O)CN(C)C(=O)[C@@H]1Cc1ccc(C(F)(F)F)cc1 [PP0270] ([NMeL][Abu(4,4,4-F3)][NMeA][Aze][NPrPhe(4-CF3)][Sar][hPhe(3-Cl-4-CF3)]P[Ac5c][NMeGly(cPent)][NMeD]-Morpholide; lactam N-11)	B (a compound having 3 or more and less than 10 is denoted as B)	0.76 nM	C (A compound having a KD ratio of 0.1 or more and less than 3 is denoted as C)
CCCN1C(=O)[C@@H]2CCN2C(=O)[C@H](C)N(C)C(=O)[C@H](C2CCC2)NC(=O)[C@H](CC(C)C)N(C)C(=O)C[C@@H](C(=O)N2CCOCC2)N(C)C(=O)[C@H](C2CCCC2)N(C)C(=O)C2(CCCC2)NC(=O)[C@@H]2CCCN2C(=O)[C@H](CCc2ccc(C(F)(F)F)c(Cl)c2)NC(=O)CN(C)C(=O)[C@@H]1Cc1ccc(C(F)(F)F)cc1 [PP0271] ([NMeL][Gly(cBu)][NMeA][Aze][NPrPhe(4-CF3)][Sar][hPhe(3-Cl-4-CF3)]P[Ac5c][NMeGly(cPent)][NMeD]-Morpholide; lactam N-11)	B (a compound having 3 or more and less than 10 is denoted as B)	0.22 nM	C (A compound having a KD ratio of 0.1 or more and less than 3 is denoted as C)
CCCN1C(=O)[C@@H]2CCN2C(=O)[C@H](C)N(C)C(=O)[C@H](C2CCCC2)NC(=O)[C@H](CC(C)C)N(C)C(=O)C[C@@H](C(=O)N2CCOCC2)N(C)C(=O)[C@H](C2CCCC2)N(C)C(=O)C2(CCCC2)NC(=O)[C@@H]2CCCN2C(=O)[C@H](CCc2ccc(C(F)(F)F)c(Cl)c2)NC(=O)CN(C)C(=O)[C@@H]1Cc1ccc(C(F)(F)F)cc1 [PP0272] ([NMeL][Gly(cPent)][NMeA][Aze][NPrPhe(4-CF3)][Sar][hPhe(3-Cl-4-CF3)]P[Ac5c][NMeGly(cPent)][NMeD]-Morpholide; lactam N-11)	B (a compound having 3 or more and less than 10 is denoted as B)	0.17 nM	C (A compound having a KD ratio of 0.1 or more and less than 3 is denoted as C)
CCCN1C(=O)[C@@H]2CCN2C(=O)CN(C2CC2)C(=O)[C@H]([C@@H](C)CC)NC(=O)[C@H](CC(C)C)N(C)C(=O)C[C@@H](C(=O)N2CCOCC2)N(C)C(=O)[C@H](C2CCCC2)N(C)C(=O)C2(CCCC2)NC(=O)[C@@H]2CCCN2C(=O)[C@H](CCc2ccc(C(F)(F)F)c(Cl)c2)NC(=O)CN(C)C(=O)[C@@H]1Cc1ccc(C(F)(F)F)cc1 [PP0273] ([NMeL]I[NcPrGly][Aze][NPrPhe(4-CF3)][Sar][hPhe(3-Cl-4-CF3)]P[Ac5c][NMeGly(cPent)][NMeD]-Morpholide; lactam N-11)	B (a compound having 3 or more and less than 10 is denoted as B)	0.56 nM	C (A compound having a KD ratio of 0.1 or more and less than 3 is denoted as C)
